Data on 14 compounds can be found in US20250145665A1, “MACROCYCLIC PEPTIDES USEFUL AS MODULATORS OF TNF ALPHA” (Bristol-Myers Squibb Company, priority 2023, published 2025).

Starred links: 1 amine or outer side, 2 acyl side, 3 side chain; linkers in the order of their positions; H or OH if unused. Positions of bridges follow the written chain, without caps; N, C: chain ends. Non-standard residues stand in square brackets, D forms with d. Residues, ends and D or L forms follow the SMILES beside them. *: point of attachment. Bip(4'-NHCO-C6H4-3-CH2COOH) = N[C@@H](Cc1ccc(-c2ccc(NC(=O)c3cccc(CC(=O)O)c3)cc2)cc1)C(=O)O; Bip(4'-NHCO-C6H4-4-CH2COOH) = N[C@@H](Cc1ccc(-c2ccc(NC(=O)c3ccc(CC(=O)O)cc3)cc2)cc1)C(=O)O; Bip(4'-NH) = O=C([C@H](Cc1ccc(-c2ccc(N[*:3])cc2)cc1)N[*:1])[*:2]; Bip(4'-COOH) = N[C@@H](Cc1ccc(-c2ccc(C(=O)O)cc2)cc1)C(=O)O; Bip(4'-NHAc) = CC(=O)Nc1ccc(-c2ccc(C[C@H](N)C(=O)O)cc2)cc1; Ala(morpholin-4-yl) = N[C@@H](CN1CCOCC1)C(=O)O; Benzoyl(3-OCH2COOH) = O=C(O)COc1cccc(C(=O)*)c1; Bip = N[C@@H](Cc1ccc(-c2ccccc2)cc1)C(=O)O; 2Pal = N[C@@H](Cc1ccccn1)C(=O)O; 2Thi = N[C@@H](Cc1cccs1)C(=O)O; Cha = N[C@@H](CC1CCCCC1)C(=O)O; Tle = CC(C)(C)[C@H](N)C(=O)O; Sar = CNCC(=O)O

Sequence of TNFα (P01375 77-233 limits assumed): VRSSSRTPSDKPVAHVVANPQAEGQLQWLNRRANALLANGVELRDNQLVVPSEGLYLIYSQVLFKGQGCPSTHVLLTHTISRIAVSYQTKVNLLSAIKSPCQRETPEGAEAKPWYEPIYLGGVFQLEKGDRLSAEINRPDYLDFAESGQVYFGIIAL

This assay addresses TNFα (Homo sapiens, UniProt P01375). As to the kind of experiment: TNF-Induced HEK-Blue Assay. The assay is classed as cell-based. To be noted: HEK-Blue-CD40L cells, NF-kB-driven secreted alkaline phosphatase reporter; TNFα 0.5 ng/ml; 18 h; read-out: TNF induced HEK-Blue assay IC50 value.
By IC50 is commonly meant the concentration that gives 50% inhibition. `CC(=O)Nc1ccc(-c2ccc(C[C@@H]3NC(=O)[C@H](Cc4ccc(-c5ccccc5)cc4)NC(=O)[C@H](C(C)(C)C)NC(=O)CSC[C@@H](C(=O)NCC(N)=O)NC(=O)[C@H](CC(C)C)NC(=O)[C@H](Cc4cccs4)NC(=O)[C@H](C(C)C)NC(=O)[C@@H]4CCCN4C(=O)[C@H](C(C)C)NC(=O)[C@@H](CCCNC(=N)N)NC(=O)[C@H](CC(=O)O)NC(=O)[C@H](Cc4ccccn4)NC(=O)CN(C)C3=O)cc2)cc1` [Example 605] ({CH2CO}-[Tle][Bip][Bip(4'-NHAc)][Sar][2Pal]D[dR]VPV[2Thi]LCG-NH2; thioether N-13): the IC50 was in the range of 200 to 2000 nM.

On to `CC(C)C[C@@H]1NC(=O)[C@H](Cc2cccs2)NC(=O)[C@H](C(C)C)NC(=O)[C@@H]2CCCN2C(=O)[C@H](C(C)C)NC(=O)[C@@H](CCCNC(=N)N)NC(=O)[C@H](CC(=O)O)NC(=O)[C@H](Cc2ccccn2)NC(=O)CN(C)C(=O)[C@H](Cc2ccc(-c3ccc(NC(=O)c4cccc(OCC(=O)O)c4)cc3)cc2)NC(=O)[C@H](Cc2ccc(-c3ccccc3)cc2)NC(=O)[C@H](CN2CCOCC2)NC(=O)CSC[C@@H](C(=O)NCC(N)=O)NC1=O` [Example 606] ({CH2CO}-[Ala(morpholin-4-yl)][Bip][Bip(4'-NH)](Benzoyl(3-OCH2COOH))[Sar][2Pal]D[dR]VPV[2Thi]LCG-NH2; thioether N-13), for which the IC50 was < 50 nM.

On to `CC(C)C[C@@H]1NC(=O)[C@H](Cc2cccs2)NC(=O)[C@H](C(C)C)NC(=O)[C@@H]2CCCN2C(=O)[C@H](C(C)C)NC(=O)[C@@H](CCCNC(=N)N)NC(=O)[C@H](CC(=O)O)NC(=O)[C@H](Cc2ccccn2)NC(=O)CN(C)C(=O)[C@H](Cc2ccc(-c3ccc(NC(=O)c4ccc(CC(=O)O)cc4)cc3)cc2)NC(=O)[C@H](Cc2ccc(-c3ccccc3)cc2)NC(=O)[C@H](CN2CCOCC2)NC(=O)CSC[C@@H](C(=O)NCC(N)=O)NC1=O` [Example 607] ({CH2CO}-[Ala(morpholin-4-yl)][Bip][Bip(4'-NHCO-C6H4-4-CH2COOH)][Sar][2Pal]D[dR]VPV[2Thi]LCG-NH2; thioether N-13), for which the IC50 is < 50 nM.

In the case of `CC(C)C[C@@H]1NC(=O)[C@H](Cc2cccs2)NC(=O)[C@H](C(C)C)NC(=O)[C@@H]2CCCN2C(=O)[C@H](C(C)C)NC(=O)[C@@H](CCCNC(=N)N)NC(=O)[C@H](CC(=O)O)NC(=O)[C@H](Cc2ccccn2)NC(=O)CN(C)C(=O)[C@H](Cc2ccc(-c3ccc(NC(=O)c4cccc(CC(=O)O)c4)cc3)cc2)NC(=O)[C@H](Cc2ccc(-c3ccccc3)cc2)NC(=O)[C@H](CN2CCOCC2)NC(=O)CSC[C@@H](C(=O)NCC(N)=O)NC1=O` [Example 608] ({CH2CO}-[Ala(morpholin-4-yl)][Bip][Bip(4'-NHCO-C6H4-3-CH2COOH)][Sar][2Pal]D[dR]VPV[2Thi]LCG-NH2; thioether N-13), the IC50 is < 50 nM.

Take `CC(C)C[C@@H]1NC(=O)[C@H](Cc2cccs2)NC(=O)[C@H](C(C)C)NC(=O)[C@@H]2CCCN2C(=O)[C@H](C(C)C)NC(=O)[C@@H](CCCNC(=N)N)NC(=O)[C@H](CC(=O)O)NC(=O)[C@H](Cc2ccccn2)NC(=O)CN(C)C(=O)[C@H](Cc2ccc(-c3ccc(NC(=O)c4cccc(OCC(=O)O)c4)cc3)cc2)NC(=O)[C@H](Cc2ccc(-c3ccc(C(=O)O)cc3)cc2)NC(=O)[C@H](CN2CCOCC2)NC(=O)CSC[C@@H](C(=O)NCC(N)=O)NC1=O` [Example 609] ({CH2CO}-[Ala(morpholin-4-yl)][Bip(4'-COOH)][Bip(4'-NH)](Benzoyl(3-OCH2COOH))[Sar][2Pal]D[dR]VPV[2Thi]LCG-NH2; thioether N-13): the IC50 is < 50 nM.

On to `CC(C)C[C@@H]1NC(=O)[C@H](Cc2cccs2)NC(=O)[C@H](C(C)C)NC(=O)[C@@H]2CCCN2C(=O)[C@H](C(C)C)NC(=O)[C@@H](CCCNC(=N)N)NC(=O)[C@H](CC(=O)O)NC(=O)[C@H](Cc2ccccn2)NC(=O)CN(C)C(=O)[C@H](Cc2ccc(-c3ccc(NC(=O)c4cccc(CC(=O)O)c4)cc3)cc2)NC(=O)[C@H](Cc2ccc(-c3ccc(C(=O)O)cc3)cc2)NC(=O)[C@H](CN2CCOCC2)NC(=O)CSC[C@@H](C(=O)NCC(N)=O)NC1=O` [Example 610] ({CH2CO}-[Ala(morpholin-4-yl)][Bip(4'-COOH)][Bip(4'-NHCO-C6H4-3-CH2COOH)][Sar][2Pal]D[dR]VPV[2Thi]LCG-NH2; thioether N-13), for which the IC50 was < 50 nM.

Regarding `CC(C)C[C@@H]1NC(=O)[C@H](Cc2cccs2)NC(=O)[C@H](C(C)C)NC(=O)[C@@H]2CCCN2C(=O)[C@H](C(C)C)NC(=O)[C@@H](CCCNC(=N)N)NC(=O)[C@H](CC(=O)O)NC(=O)[C@H](Cc2ccccn2)NC(=O)CN(C)C(=O)[C@H](Cc2ccc(-c3ccc(NC(=O)c4ccc(CC(=O)O)cc4)cc3)cc2)NC(=O)[C@H](Cc2ccc(-c3ccc(C(=O)O)cc3)cc2)NC(=O)[C@H](CN2CCOCC2)NC(=O)CSC[C@@H](C(=O)NCC(N)=O)NC1=O` [Example 611] ({CH2CO}-[Ala(morpholin-4-yl)][Bip(4'-COOH)][Bip(4'-NHCO-C6H4-4-CH2COOH)][Sar][2Pal]D[dR]VPV[2Thi]LCG-NH2; thioether N-13), the IC50 is < 50 nM.

As for `CC(C)C[C@@H]1NC(=O)[C@H](Cc2cccs2)NC(=O)[C@H](C(C)C)NC(=O)[C@@H]2CCCN2C(=O)[C@H](C(C)C)NC(=O)[C@@H](CCCNC(=N)N)NC(=O)[C@H](CC(=O)O)NC(=O)[C@H](Cc2ccccn2)NC(=O)CN(C)C(=O)[C@H](Cc2ccc(-c3ccc(NC(=O)c4ccc(CC(=O)O)cc4)cc3)cc2)NC(=O)[C@H](Cc2ccc(-c3ccc(C(=O)O)cc3)cc2)NC(=O)[C@H](CC2CCCCC2)NC(=O)CSC[C@@H](C(=O)NCC(N)=O)NC1=O` [Example 612] ({CH2CO}-[Cha][Bip(4'-COOH)][Bip(4'-NHCO-C6H4-4-CH2COOH)][Sar][2Pal]D[dR]VPV[2Thi]LCG-NH2; thioether N-13), the IC50 is 50 to 200 nM.

With `CC(C)C[C@@H]1NC(=O)[C@H](Cc2cccs2)NC(=O)[C@H](C(C)C)NC(=O)[C@@H]2CCCN2C(=O)[C@H](C(C)C)NC(=O)[C@@H](CCCNC(=N)N)NC(=O)[C@H](CC(=O)O)NC(=O)[C@H](Cc2ccccn2)NC(=O)CN(C)C(=O)[C@H](Cc2ccc(-c3ccc(NC(=O)c4cccc(CC(=O)O)c4)cc3)cc2)NC(=O)[C@H](Cc2ccc(-c3ccc(C(=O)O)cc3)cc2)NC(=O)[C@H](CC2CCCCC2)NC(=O)CSC[C@@H](C(=O)NCC(N)=O)NC1=O` [Example 613] ({CH2CO}-[Cha][Bip(4'-COOH)][Bip(4'-NHCO-C6H4-3-CH2COOH)][Sar][2Pal]D[dR]VPV[2Thi]LCG-NH2; thioether N-13), the IC50 lay in the range of 50 to 200 nM.

Regarding `CC(C)C[C@@H]1NC(=O)[C@H](Cc2cccs2)NC(=O)[C@H](C(C)C)NC(=O)[C@@H]2CCCN2C(=O)[C@H](C(C)C)NC(=O)[C@@H](CCCNC(=N)N)NC(=O)[C@H](CC(=O)O)NC(=O)[C@H](Cc2ccccn2)NC(=O)CN(C)C(=O)[C@H](Cc2ccc(-c3ccc(NC(=O)c4cccc(OCC(=O)O)c4)cc3)cc2)NC(=O)[C@H](Cc2ccc(-c3ccc(C(=O)O)cc3)cc2)NC(=O)[C@H](CC2CCCCC2)NC(=O)CSC[C@@H](C(=O)NCC(N)=O)NC1=O` [Example 614] ({CH2CO}-[Cha][Bip(4'-COOH)][Bip(4'-NH)](Benzoyl(3-OCH2COOH))[Sar][2Pal]D[dR]VPV[2Thi]LCG-NH2; thioether N-13), the IC50 is 50 to 200 nM.

Regarding `CC(C)C[C@@H]1NC(=O)[C@H](Cc2cccs2)NC(=O)[C@H](C(C)C)NC(=O)[C@@H]2CCCN2C(=O)[C@H](C(C)C)NC(=O)[C@@H](CCCNC(=N)N)NC(=O)[C@H](CC(=O)O)NC(=O)[C@H](Cc2ccccn2)NC(=O)CN(C)C(=O)[C@H](Cc2ccc(-c3ccc(NC(=O)c4cccc(OCC(=O)O)c4)cc3)cc2)NC(=O)[C@H](Cc2ccc(-c3ccc(C(=O)O)cc3)cc2)NC(=O)[C@H](C(C)(C)C)NC(=O)CSC[C@@H](C(=O)NCC(N)=O)NC1=O` [Example 615] ({CH2CO}-[Tle][Bip(4'-COOH)][Bip(4'-NH)](Benzoyl(3-OCH2COOH))[Sar][2Pal]D[dR]VPV[2Thi]LCG-NH2; thioether N-13), the concentration for half-maximal inhibition (IC50) lay in the range of 50 to 200 nM.

`CC(C)C[C@@H]1NC(=O)[C@H](Cc2cccs2)NC(=O)[C@H](C(C)C)NC(=O)[C@@H]2CCCN2C(=O)[C@H](C(C)C)NC(=O)[C@@H](CCCNC(=N)N)NC(=O)[C@H](CC(=O)O)NC(=O)[C@H](Cc2ccccn2)NC(=O)CN(C)C(=O)[C@H](Cc2ccc(-c3ccc(NC(=O)c4cccc(OCC(=O)O)c4)cc3)cc2)NC(=O)[C@H](Cc2ccc(-c3ccccc3)cc2)NC(=O)[C@H](CC2CCCCC2)NC(=O)CSC[C@@H](C(=O)NCC(N)=O)NC1=O` [Example 616] ({CH2CO}-[Cha][Bip][Bip(4'-NH)](Benzoyl(3-OCH2COOH))[Sar][2Pal]D[dR]VPV[2Thi]LCG-NH2; thioether N-13): the IC50 lay in the range of 50 to 200 nM.

For `CC(C)C[C@@H]1NC(=O)[C@H](Cc2cccs2)NC(=O)[C@H](C(C)C)NC(=O)[C@@H]2CCCN2C(=O)[C@H](C(C)C)NC(=O)[C@@H](CCCNC(=N)N)NC(=O)[C@H](CC(=O)O)NC(=O)[C@H](Cc2ccccn2)NC(=O)CN(C)C(=O)[C@H](Cc2ccc(-c3ccc(NC(=O)c4ccc(CC(=O)O)cc4)cc3)cc2)NC(=O)[C@H](Cc2ccc(-c3ccccc3)cc2)NC(=O)[C@H](CC2CCCCC2)NC(=O)CSC[C@@H](C(=O)NCC(N)=O)NC1=O` [Example 617] ({CH2CO}-[Cha][Bip][Bip(4'-NHCO-C6H4-4-CH2COOH)][Sar][2Pal]D[dR]VPV[2Thi]LCG-NH2; thioether N-13), the IC50 is < 50 nM.

With `CC(C)C[C@@H]1NC(=O)[C@H](Cc2cccs2)NC(=O)[C@H](C(C)C)NC(=O)[C@@H]2CCCN2C(=O)[C@H](C(C)C)NC(=O)[C@@H](CCCNC(=N)N)NC(=O)[C@H](CC(=O)O)NC(=O)[C@H](Cc2ccccn2)NC(=O)CN(C)C(=O)[C@H](Cc2ccc(-c3ccc(NC(=O)c4cccc(CC(=O)O)c4)cc3)cc2)NC(=O)[C@H](Cc2ccc(-c3ccccc3)cc2)NC(=O)[C@H](CC2CCCCC2)NC(=O)CSC[C@@H](C(=O)NCC(N)=O)NC1=O` [Example 618] ({CH2CO}-[Cha][Bip][Bip(4'-NHCO-C6H4-3-CH2COOH)][Sar][2Pal]D[dR]VPV[2Thi]LCG-NH2; thioether N-13), the half-maximal inhibitory concentration (IC50) was 50 to 200 nM.
